pEC50: −log10 of the molar value. Where a SMILES comes first, the peptide text is derived from it.
Experiments:
[1] = system: HA7-EBV cells (express HLA B*3501); assay: 51Cr release assay: lysis of peptide-pulsed HA7-EBV cells by CTL 35-24; format: cell-based, human; conditions: HA7-EBV cells (HLA B*3501)
Description: (§1) The same TNF assay as is described in example 2, supra, was used, except fragments of tyrosinase cDNA, rather than complete cDNA molecules, were used. Three fragments were positive, and these corresponded to nucleotides 1-1086, 427-1134, and 703-1134 of the coding region of tyrosinase cDNA. A fragment corresponding to position 574-831 was negative, leading to the conclusion that nucleotides 831-1086 encoded for the presented antigen. These correspond to amino acids 270-362 of tyrosinase, whose amino acid sequence is known. This amino acid sequence was compared to known peptides, which bind to HLA-B*3501, and its binding motif, as described by Rammensee, et al., supra, incorporated by reference. This reference describes a binding motif for HLA-B35 which is a nonapeptide, where Pro is found at position 2, and Tyr is found at position 9. For decapeptides, Ramensee, et al, gives P2 and Y10 as anchors. HLA-B*3501 was used because no information was found in the art for HLA-B*3503. Ramensee et al. also gives Phe, Met, Leu, and Ile as auxiliary anchors for P9. The peptide defined by amino acid sequence LPSSADVEF (SEQ ID NO: 1) satisfies these requisites, and is found at amino acids 312-320 of tyrosinase. […] The ^51Cr release was measured after 3.5 hours.

[2] = system: LG2-EBV cells (express HLA-B*3503); assay: 51Cr release assay: lysis of peptide-pulsed LG2-EBV cells by CTL 35-24; format: cell-based, human; conditions: LG2-EBV cells (HLA-B*3503)
Description: as §1

[3] = varying concentrations of peptide

SMILES: CC(C)C[C@H](N)C(=O)N1CCC[C@H]1C(=O)N[C@@H](CO)C(=O)N[C@@H](CO)C(=O)N[C@@H](C)C(=O)N[C@@H](CC(=O)O)C(=O)N[C@H](C(=O)N[C@@H](CCC(=O)O)C(=O)N[C@@H](Cc1ccccc1)C(=O)O)C(C)C [SEQ ID NO: 1, LPSSADVEF] (H-LPSSADVEF-OH; N-terminus and C-terminus assumed)
- pEC50 ([1]; 30 minutes with peptide, then CTL 35-24, 51Cr release after 3.5 hours, read-out: dose of peptide giving half maximal lysis): ~8.00
- lysis of peptide-pulsed cells by CTL 35-24 [1, 3]: provoked lysis
- pEC50 ([2]; 30 minutes with peptide, then CTL 35-24, effector:target 5:1, 51Cr release after 3.5 hours, read-out: dose of peptide giving half maximal lysis): 9.00
- lysis of peptide-pulsed cells by CTL 35-24 [2, 3]: provoked lysis

From patent US6667037B1, “Isolated peptides which bind to HLA-B35 molecules, larger peptides which contain these, nucleic acid molecules encoding peptides, and uses thereof” (Ludwig Institute for Cancer Research, priority 1998, dated 2003)
